Laboratory results taken from US4220755A, “Fortimicin B derivatives and process for production thereof” (Abbott Laboratories, priority 1976, dated 1980).
Converted amounts (≈) assume the structure as drawn. Like-named read-outs stand apart in the source and are kept apart here.

Legend:
[1] = tested on: Escherichia coli 57R/W677; assay: MIC, agar dilution method, pH 7.2; type: cell-based; details: 57R/W677, pH 7.2, read-out: Minimum inhibition concentration (MIC)
Method: (§1) Measurement was carried out according to the agar dilution method, using a medium of pH 8.0, or the Japanese Antibiotic Medicament Standard, using a medium of pH 7.2 Units are in mcg/ml.
(§2) **1: gentamicin, producing adenylsynthetase.

[2] = tested on: Escherichia coli 76-2; assay: MIC, agar dilution method, pH 7.2; type: cell-based; details: Escherichia coli, 762; pH 7.2; E. coli 76-2; 1**: gentamicin, producing adenylsynthetase; read-out: Minimum inhibition concentration (MIC)
Method: as §1, §2

[3] = tested on: Escherichia coli R12 Z-338; assay: MIC, agar dilution method, pH 7.2; type: cell-based
Method: as §1, §2

[4] = tested on: Klebsiella pneumoniae 3020 Y-60; assay: MIC, agar dilution method, pH 7.2; type: cell-based; details: 3020Y60; pH 7.2; Klebsiella pneumoniae 3020 Y-60; 1**: gentamicin, producing adenylsynthetase; read-out: Minimum inhibition concentration (MIC)
Method: as §1, §2

[5] = tested on: Eschericihia coli 3100; assay: MIC, agar dilution method, pH 7.2; type: cell-based, Escherichia coli
Method: as §1

[6] = tested on: Escherichia coli R18 KY8321; assay: MIC, agar dilution method, pH 7.2; type: cell-based; details: R18KY8321, E. coli R18 KY8321, 2**: gentamicin, producing adenylsynthetase and neomycin phosphotransferase type II, read-out: Minimum inhibition concentration (MIC)
Method: as §1
2: gentamicin, producing adenylsynthetase and neomycin phosphotransferase

[7] = tested on: Escherichia coli R20 KY8349; assay: MIC, agar dilution method, pH 7.2; type: cell-based; details: R20KY8349, pH 7.2, E. coli R20 KY8349, 5**: neomycin, producing phosphotransferase type I, read-out: Minimum inhibition concentration (MIC)
Method: as §1
5: neomycin, producing phosphotransferase type I.

[8] = tested on: Staphylococcus aureus KY4279 ATCC6538P; assay: MIC, agar dilution method, pH 8.0; type: cell-based
Method: as §1
S.A.: Staphylococcus aureus KY4279 ATCC6538P

[9] = tested on: Pseudomonas aeruginosa BMH# 1; assay: MIC, agar dilution method, pH 7.2; type: cell-based; details: pH 7.2; Pseudomonas aeruginosa BMH# 1; read-out: Minimum inhibition concentration (MIC)
Method: as §1

[10] = tested on: Eschericihia coli GN2411-5; assay: MIC, agar dilution method, pH 7.2; type: cell-based; details: Escherichia coli; pH 7.2; E. coli GN2411-5; read-out: Minimum inhibition concentration (MIC)
Method: as §1

[11] = tested on: Salmonella enteritidis G-14; assay: MIC, agar dilution method, pH 7.2; type: cell-based; details: Salmonella enterica; pH 7.2; Salmonella enteritidis G-14; read-out: Minimum inhibition concentration (MIC)
Method: as §1

[12] = tested on: Proteus vulgaris JJ; assay: MIC, agar dilution method, pH 7.2; type: cell-based
Method: as §1

[13] = tested on: Pseudomonas aeruginosa UCLA 4184; assay: MIC, agar dilution method, pH 7.2; type: cell-based; details: UCLA4184; pH 7.2; Pseudomonas aeruginosa UCLA 4184; read-out: Minimum inhibition concentration (MIC)
Method: as §1

[14] = tested on: Escherichia coli NIHTC-2; assay: MIC, agar dilution method, pH 7.2; type: cell-based; details: NIHTC2; pH 7.2; Escherichia coli NIHTC-2; read-out: Minimum inhibition concentration (MIC)
Method: as §1

[15] = tested on: Staphylococcus aureus 209-P; assay: MIC, agar dilution method, pH 7.2; type: cell-based; details: pH 7.2; Staphylococcus aureus 209-P; read-out: Minimum inhibition concentration (MIC)
Method: as §1

[16] = tested on: Shigella sonnei ATCC9290; assay: MIC, agar dilution method, pH 7.2; type: cell-based; details: read-out: Minimum inhibition concentration (MIC)
Method: as §1

[17] = tested on: Klebsiella pneumoniae KY4274; assay: MIC, agar dilution method, pH 7.2; type: cell-based
Method: as §1

[18] = tested on: Staphylococcus aureus Smith (A); assay: MIC, agar dilution method, pH 7.2; type: cell-based; details: pH 7.2; Staphylococcus aureus Smith (A); read-out: Minimum inhibition concentration (MIC)
Method: as §1

[19] = tested on: Providencia sp 164; assay: MIC, agar dilution method, pH 7.2; type: cell-based; details: pH 7.2; Providencia sp 164; 7**: gentamicin, producing acetyltransferase type II; read-out: Minimum inhibition concentration (MIC)
Method: as §1
7: gentamicin, producing acetyltransferase type II.

[20] = tested on: Pseudomonas aeruginosa R4 KY8511; assay: MIC, agar dilution method, pH 7.2; type: cell-based; details: R4KY8511, pH 7.2, P. aeruginosa R4 KY8511, 4**: gentamicin, producing acetyltransferase type I, read-out: Minimum inhibition concentration (MIC)
Method: as §1
(§3) 4: gentamicin, producing acetyltransferase type I.

[21] = tested on: Escherichia coli R19 KY8348; assay: MIC, agar dilution method, pH 7.2; type: cell-based; details: R19KY8348, pH 7.2, E. coli R19 KY8348, 4**: gentamicin, producing acetyltransferase type I, read-out: Minimum inhibition concentration (MIC)
Method: as §1, §3

[22] = tested on: Bacillus subtilis KY4273; assay: MIC, agar dilution method, pH 8.0; type: cell-based; details: pH 8.0; Bacillus subtilis KY4273; read-out: Minimum inhibition concentration (MIC), BS
Method: as §1
B.S.: Bacillus subtilis KY4273

[23] = tested on: Escherichia coli R17 Z343; assay: MIC, agar dilution method, pH 7.2; type: cell-based; details: R17Z343, pH 7.2, E. coli R17 Z343, 3**: kanamycin, producing acetyltransferase, read-out: Minimum inhibition concentration (MIC)
Method: as §1
(§4) 3: kanamycin, producing acetyltransferase.

[24] = tested on: Serratia marcescens 1065; assay: MIC, agar dilution method, pH 7.2; type: cell-based
Method: as §1, §4

[25] = tested on: Pseudomonas aeruginosa R9 KY8516; assay: MIC, agar dilution method, pH 7.2; type: cell-based; details: R9KY8516, pH 7.2, P. aeruginosa R9 KY8516, 3**: kanamycin, producing acetyltransferase, read-out: Minimum inhibition concentration (MIC)
Method: as §1, §4

[26] = tested on: Eschericia coli KY4271 ATCC26; assay: MIC, agar dilution method, pH 8.0; type: cell-based; details: Escherichia coli
Method: as §1
E.C.: Eschericia coli KY4271 ATCC26

[27] = tested on: Salmonella typhosa KY4278 ATCC9992; assay: MIC, agar dilution method, pH 8.0; type: cell-based; details: Salmonella enterica, pH 8, read-out: Minimum inhibition concentration (MIC), ST
Method: as §1
S.T.: Salmonella typhosa KY4278 ATCC9992

[28] = tested on: Proteus vulgaris KY4277 ATCC6897; assay: MIC, agar dilution method, pH 8.0; type: cell-based; details: ATCC6897; pH 8.0; Proteus vulgaris KY4277; read-out: Minimum inhibition concentration (MIC), PV
Method: as §1

[29] = tested on: Shigella sonnei KY4281 ATCC9290; assay: MIC, agar dilution method, pH 8.0; type: cell-based
Method: as §1

[30] = tested on: Pseudomonas aeruginosa R5 KY8512; assay: MIC, agar dilution method, pH 7.2; type: cell-based; details: R5KY8512, pH 7.2, P. aeruginosa R5 KY8512, 6**: neomycin, producing phosphotransferase type I and type II, read-out: Minimum inhibition concentration (MIC)
Method: as §1
6: neomycin, producing phosphotransferase type I and type II.

[31] = tested on: Klebsiella pneumoniae KY4275 ATCC10031; assay: MIC, agar dilution method, pH 8.0; type: cell-based; details: ATCC10031; pH 8.0; Klebsiella pneumoniae KY4275; read-out: Minimum inhibition concentration (MIC), KP
Method: as §1
K.P.: Klebsiella pneumoniae KY4275 ATCC10031.

[32] = tested on: Staphylococcus a ureus 226; assay: MIC, agar dilution method, pH 7.2; type: cell-based, Staphylococcus aureus; details: pH 7.2; Staphylococcus aureus 226; read-out: Minimum inhibition concentration (MIC)
Method: as §1

Compound	MIC [1] [µg/mL]	MIC [2] [µg/mL]	MIC [4] [µg/mL]	MIC [6] [µg/mL]	MIC [7] [µg/mL]	MIC [9] [µg/mL]	MIC [10] [µg/mL]	MIC [11] [µg/mL]	MIC [13] [µg/mL]	MIC [14] [µg/mL]	MIC [15] [µg/mL]	MIC [16] [µg/mL]	MIC [18] [µg/mL]	MIC [19] [µg/mL]	MIC [20] [µg/mL]	MIC [21] [µg/mL]	MIC [22] [µg/mL]	MIC [23] [µg/mL]	MIC [25] [µg/mL]	MIC [27] [µg/mL]	also measured
CO[C@H]1[C@@H](O)[C@H](N)[C@@H](O[C@H]2O[C@H]([C@H](C)N)CC[C@H]2N)[C@H](O)[C@@H]1N(C)C(=O)CO [Compound 4, 4-N-glycolylfortimicin B]	25 (≈ 61.5 µM)	6.25 (≈ 15.4 µM)	> 100	6.25 (≈ 15.4 µM)	12.5 (≈ 30.8 µM)	50 (≈ 123 µM)	12.5 (≈ 30.8 µM)	25 (≈ 61.5 µM)	100 (≈ 246 µM)	12.5 (≈ 30.8 µM)	3.12 (≈ 7.68 µM)	25 (≈ 61.5 µM)	3.12 (≈ 7.68 µM)	100 (≈ 246 µM)	> 100	> 100	5 (≈ 12.3 µM)	6.25 (≈ 15.4 µM)	100 (≈ 246 µM)	1.25 (≈ 3.08 µM)	MIC ([3]; R12Z338, pH 7.2, E. coli R12 Z-338, 1**: gentamicin, producing adenylsynthetase, read-out: Minimum inhibition concentration (MIC)): 25 µg/mL (≈ 61.5 µM); MIC ([5]; Escherichia coli, pH 7.2, E. coli 3100, read-out: Minimum inhibition concentration (MIC)): 12.5 µg/mL (≈ 30.8 µM); MIC ([8]; Staphylococcus aureus, pH 8, read-out: Minimum inhibition concentration (MIC), SA): 1.25 µg/mL (≈ 3.08 µM); MIC ([12]; pH 7.2, Proteus vulgaris JJ, read-out: Minimum inhibition concentration (MIC)): 25 µg/mL (≈ 61.5 µM); MIC ([17]; pH 7.2, Klebsiella pneumoniae KY4274, read-out: Minimum inhibition concentration (MIC)): 25 µg/mL (≈ 61.5 µM); MIC ([24]; pH 7.2, Serratia marcescens 1065, 3**: kanamycin, producing acetyltransferase, read-out: Minimum inhibition concentration (MIC)): 50 µg/mL (≈ 123 µM); MIC ([26]; ATCC26, pH 8, read-out: Minimum inhibition concentration (MIC), EC): 1.25 µg/mL (≈ 3.08 µM); MIC [28]: 2.5 µg/mL (≈ 6.15 µM); MIC ([29]; ATCC9290, pH 8.0, Shigella sonnei KY4281, read-out: Minimum inhibition concentration (MIC), SS): 5 µg/mL (≈ 12.3 µM); MIC [30]: 50 µg/mL (≈ 123 µM); MIC [31]: 5 µg/mL (≈ 12.3 µM); MIC [32]: 12.5 µg/mL (≈ 30.8 µM)
CO[C@H]1[C@@H](O)[C@H](N)[C@@H](O[C@H]2O[C@H]([C@H](C)N)CC[C@H]2N)[C@H](O)[C@@H]1N(C)CCN [Compound 15, 4-N-(2-aminoethyl)fortimicin B]	12.5 (≈ 31.9 µM)	3.12 (≈ 7.97 µM)	50 (≈ 128 µM)	3.12 (≈ 7.97 µM)	3.12 (≈ 7.97 µM)	12.5 (≈ 31.9 µM)	3.12 (≈ 7.97 µM)	25 (≈ 63.9 µM)	12.5 (≈ 31.9 µM)	3.12 (≈ 7.97 µM)	0.78 (≈ 1.99 µM)	6.25 (≈ 16 µM)	0.78 (≈ 1.99 µM)	12.5 (≈ 31.9 µM)	> 100	> 100	0.16 (≈ 0.409 µM)	0.78 (≈ 1.99 µM)	25 (≈ 63.9 µM)	0.32 (≈ 0.817 µM)	MIC ([3]; R12Z338, pH 7.2, read-out: Minimum inhibition concentration (MIC)): 6.25 µg/mL (≈ 16 µM); MIC ([5]; Escherichia coli, 3100, pH 7.2, read-out: Minimum inhibition concentration (MIC)): 6.25 µg/mL (≈ 16 µM); MIC ([8]; pH 8.0, Staphylococcus aureus KY4279, read-out: Minimum inhibition concentration (MIC), SA): 0.16 µg/mL (≈ 0.409 µM); MIC ([12]; Proteus vulgaris, pH 7.2, read-out: Minimum inhibition concentration (MIC)): 6.25 µg/mL (≈ 16 µM); MIC ([17]; Klebsiella pneumoniae, KY4274, pH 7.2, read-out: Minimum inhibition concentration (MIC)): 6.25 µg/mL (≈ 16 µM); MIC ([24]; Serratia marcescens, 1065, pH 7.2, read-out: Minimum inhibition concentration (MIC)): 6.25 µg/mL (≈ 16 µM); MIC ([26]; ATCC26, pH 8.0, E. coli KY4271, read-out: Minimum inhibition concentration (MIC), EC): 0.32 µg/mL (≈ 0.817 µM); MIC [28]: 0.64 µg/mL (≈ 1.63 µM); MIC ([29]; Shigella sonnei, ATCC9290, pH 8, read-out: Minimum inhibition concentration (MIC), SS): 1.25 µg/mL (≈ 3.19 µM); MIC [30]: 12.5 µg/mL (≈ 31.9 µM); MIC [31]: 0.63 µg/mL (≈ 1.61 µM); MIC [32]: 0.4 µg/mL (≈ 1.02 µM)
